Measurements reported in patent publication US20230324392A1, “METHODS AND COMPOSITIONS FOR TARGETING CYTOSOLIC DSDNA SIGNALING IN CHROMOSOMALLY UNSTABLE CANCERS” (MEMORIAL SLOAN KETTERING CANCER CENTER, priority 2020, published 2023).
Where “and” joins values, the source holds several entries; their conditions need not be identical. Identical values can stand only once.

Assays:
4T1 cells = assay: Tail vein inoculation of 4T1 cells in BALB/c mice, survival; assay type: in vivo, mouse; details: 4T1, BALB/c, daily IP, vs vehicle
Method: (§1) Animal metastasis studies: Animal experiments were performed in accordance with protocols approved by the MSKCC Institutional Animal Care and Use Committee. […] There was no need to randomize animals. Investigators were not blinded to group allocation. For tail vein injections, 5×10^4 4T1, 2.5×10^4 B16F10, or 10^5 CT26 cells were injected into the tail vein of 6-7-week old BALB/c (4T1 and CT26) or C57BL/6 (B16F10) mice. Metastasis was primarily assessed through overall survival. Overall survival endpoint was met when the mice died or met the criteria for euthanasia under the IACUC protocol. […] Surface lung metastases were assessed at endpoint by direct visual examination after euthanasia at which points lungs were perfused and fixed in 4% paraformaldehyde (4T1 and B16F10 experiments) or stained using India-ink (CT26 experiments). Furthermore, lung metastasis after injection of 4T1 cells was qualitatively assessed using routine hematoxylin and eosin (H&E) staining. […] Primary tumors were surgically excised on day 7 after implantation and metastatic dissemination was assessed by monitoring overall survival or on day 30 through quantification of surface lung metastases upon euthanasia. The length (L) and width (W) of the primary tumors were measured using calipers. Tumor size was calculated according to the following formula: L*W2/2. […]

B16F10, 4T1, and CT26 = assay: Wound scratch assay for cell migration; assay type: cell-based, mouse; details: C176 at 1 μM; all three metastatic cancer cell lines
Method: Wound scratch assay for cell migration: Tumor cell lines B16F10, 4T1, and CT26 were seeded in 6 well plates. When cells reached>90% confluence they were treated with 0.5 μM mitomycin C (M4287, Sigma-Aldrich, St. Louis, MO) for 2 hours, after which a wound was formed using a sterile p200 pipette tip. Thereafter cells were washed once with fresh media, following by treatment with C176 at 1 μM (Probechem, China) or DMSO control in media containing 1% FBS. Images were obtained at 0, 4, 8, and 12 hours using Olympus CKX53 microscope at 4× magnification. The wound surface area was measured and quantified using ImageJ software (MRI Wound Healing tool-dev.mri.cnrs.fr/projects/imagej-macros/wiki/Wound_Healing_Tool).

STING = target: T1, STING (Mus musculus, UniProt Q3TBT3); assay: ISG expression in cGAMP-transfected Cgas-KO 4T1 cells with or without C-176; assay type: cell-based; details: in the presence of C-176
T1 construct: endogenous in cells; host or cells: Cgas-KO 4T1 cells (mouse mammary carcinoma; parental line from ATCC)
T1 sequence (Q3TBT3 1-378): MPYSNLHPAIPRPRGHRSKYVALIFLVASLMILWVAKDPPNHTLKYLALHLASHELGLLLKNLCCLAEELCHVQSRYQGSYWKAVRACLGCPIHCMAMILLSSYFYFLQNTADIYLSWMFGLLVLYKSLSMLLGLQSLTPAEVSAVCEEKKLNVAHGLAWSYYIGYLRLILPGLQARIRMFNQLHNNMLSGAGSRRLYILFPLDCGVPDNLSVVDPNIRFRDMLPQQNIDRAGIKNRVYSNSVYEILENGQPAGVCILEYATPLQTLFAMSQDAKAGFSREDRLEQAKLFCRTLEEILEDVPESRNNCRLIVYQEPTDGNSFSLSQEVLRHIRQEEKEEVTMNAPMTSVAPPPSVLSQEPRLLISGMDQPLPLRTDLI
Method: Quantitative PCR for STING inhibition study: RNA was extracted from cells with Trizol (Invitrogen, Carlsbad, CA, #15596026). cDNA was synthesized using the RNA to cDNA EcoDry™ Premix (Double Primed) kit (Takara #639549). Real-time PCR was performed to measure the relative mRNA expression levels of ISGs and the control GAPDH using Luna® Universal qPCR Master Mix (NEB, IPSWICH, MA, M3003L). The qPCR reaction and analysis were performed on a QuantStudio 6 platform (Life technology, Carlsbad, CA). The sequence of primers for Ccl5 is 5′-[sequence]-3′ and 5′-[sequence]-3′. […] The sequence for primers for Gapdh is 5′-[sequence]-3′ and 5′-[sequence]-3′.

[1] = Blood chemistry of mice treated with C-176; assay type: in vivo, mouse; details: animals 1, 2
4T1 primary tumor = assay: Orthotopically transplanted primary 4T1 tumors, tumor size; assay type: in vivo, mouse; details: orthotopic, vs vehicle
Method: as §1

B16F10 cells = details: 1 μM C-176, 48 hours
Method: RNA was extracted using the RNeasy Mini Kit (Qiagen, Hilden, Germany, 74104). Non-strand-specific paired end sequencing libraries were generated with TruSeq Stranded mRNA (Illumina, San Diego, CA, 20020594) and sequenced on the Illumina NovaSeq platform. Reads were mapped to the mouse reference GRCm38 with the Broad Picard Pipeline (broadinstitute.github.io/picard/). […] Differential analysis was performed by DESeq2 (v1.24.0) as described by Love, M. I., et al., Genome Biol. 15: 550 (2014), the totality of which is incorporated herein by reference. Gene set enrichment analysis was performed on the normalized reads estimated by DESeq2.

CT26 cells = assay: Tail vein inoculation of CT26 cells in BALB/c mice, metastasis and survival; assay type: in vivo, mouse
Method: Animal metastasis studies: Animal experiments were performed in accordance with protocols approved by the MSKCC Institutional Animal Care and Use Committee. […] There was no need to randomize animals. Investigators were not blinded to group allocation. For tail vein injections, 5×10^4 4T1, 2.5×10^4 B16F10, or 10^5 CT26 cells were injected into the tail vein of 6-7-week old BALB/c (4T1 and CT26) or C57BL/6 (B16F10) mice. Metastasis was primarily assessed through overall survival. Overall survival endpoint was met when the mice died or met the criteria for euthanasia under the IACUC protocol. Animals were censored when death was confirmed to have occurred due to metastasis-unrelated causes such as injury or death during injection, surgery, or anesthesia. Surface lung metastases were assessed at endpoint by direct visual examination after euthanasia at which points lungs were perfused and fixed in 4% paraformaldehyde (4T1 and B16F10 experiments) or stained using India-ink (CT26 experiments). […] H-151 was reconstituted in DMSO with concentration of 100 mM. Each mouse was injected intraperitoneally with 7.5 μL of H-151 stock solution in 200 μL of PBS with 0.1% Tween −80.

With `O=C(Nc1ccc(I)cc1)c1ccc([N+](=O)[O-])o1` [C-176] the “survival of tumor bearing mice” value (4T1 cells) was “significantly prolonged survival”, the migration (B16F10, 4T1, and CT26) was “significant reductions” and the “effect on ISG induction by cGAMP transfection” value (STING) was “suppressed”. For the same compound, the “A/G Ratio” value [1] was 1.3 and 1.4, the “Anion Gap” value [1] was 26 and 32 and the “BASELINE CORTISOL” value [1] was 0.811 and 0.662. For the same compound, the “BUN/CREA Ratio” value [1] was 85.0 and 84.2, the DBIL [1] was 0.0 mg/dL and the GGT [1] was 0 U/L. For the same compound, the IBIL [1] was 0.1, the Na/K [1] was 19 and 16 and the TCO2 [1] was 24 mEq/L and 18 mEq/L. The CREA ([1]; reference range 0.2-0.5) was 0.20 mg/dL and 0.19 mg/dL, the TBIL ([1]; reference range 0.2-0.6) was 0.1 mg/dL and the GLOB ([1]; reference range 1.7-2.2) was 2.3 g/dL and 1.9 g/dL. The ALB ([1]; reference range 2.4-4.3) was 3.1 g/dL and 2.6 g/dL, the TP ([1]; reference range 4.8-7.2) was 5.4 g/dL and 4.5 g/dL and the BUN ([1]; reference range 5.0-28) was 17 mg/dL and 16 mg/dL. The K ([1]; reference range 7.3-11.1) was 8.1 mEq/L and 9.7 mEq/L, the Ca ([1]; reference range 9.5-12.5) was 10.0 mg/dL and 9.9 mg/dL and the ALT ([1]; reference range 27-195) was 26 U/L and 32 U/L. The AST ([1]; reference range 54-77) was 134 U/L and 69 U/L, the CHOL ([1]; reference range 55-169) was 103 mg/dL and 93 mg/dL and the TRIG ([1]; reference range 67-289) was 82 mg/dL and 80 mg/dL. For the same compound, the ALP ([1]; reference range 105-370) was 61 U/L and 40 U/L, the CL ([1]; reference range 111-134) was 115 mEq/L and 113 mEq/L and the Na ([1]; reference range 145-181) was 157 mEq/L and 153 mEq/L. The GLU ([1]; reference range 172-372) was 205 mg/dL and 210 mg/dL, the “4T1 primary tumor size” value (4T1 primary tumor) was “did not have a significant impact” and the “baseline expression of inflammation-related genes (Ccl5, Cxcl10, Isg15)” value (B16F10 cells) was “significant reductions”. For the same compound, the “expression of STING-dependent genes” value (B16F10 cells) was “significantly reduced”, the “gene set enrichment analysis (GSEA) pathways” value (B16F10 cells) was “downregulation of pathways related to inflammation and of genes involved in the epithelial-to-mesenchymal transition (EMT)” and the “number of CT26 lung metastasis” value (CT26 cells; 13 days after tail vein injection, daily IP) was “significant reduction”. For the same compound, the “survival of tumor bearing mice” value (CT26 cells; CT26, BALB/c, IP, vs vehicle) was “significantly prolonged survival”.
